Experimental findings from patent publication US20240360157A1, “TYK2 INHIBITORS” (BIOGEN MA INC., priority 2021, published 2024) are described below.

As a reminder, the IC50 is the concentration needed to halve the response being measured.

Type in all cases: biochemical
The target of assay [1] is human JAK1 catalytic kinase (JH1) domain (Homo sapiens (Human), UniProt P23458). Kind of assay: ADP-Glo Kinase Assay, recombinant JAK1 catalytic kinase (JH1) domain. As to conditions: recombinant JH1 domain 4 nM, 35 μM ATP, JAK3-342 peptide, mean, read-out: JAK1 biochem IC50 (nM) Mean. In short, it runs like this:
(§1)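 ADP-Glo luminescence with 50 μM peptide and 100 min reactions: JAK1 4 nM with JAK3-342 peptide; JAK2, JAK3 and TYK2 at 0.2, 0.3 and 2 nM with JAK3-974 peptide. Compounds tested from 10 or 1 μM top, 11 points, 3-fold. IC50 from a 4-parameter logistic fit of normalized activity.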

The target in assay [2] is human TYK2 catalytic kinase (JH1) domain (Homo sapiens (Human), UniProt P29597). Kind of assay: ADP-Glo Kinase Assay, recombinant TYK2 catalytic kinase (JH1) domain. Conditions: recombinant JH1 domain 2 nM, 10 μM ATP, JAK3-974 peptide, mean, read-out: TYK2 biochem IC50 (nM) Mean. The method, boiled down: as §1
Sequence of human TYK2 catalytic kinase (JH1) domain (P29597 897-1176): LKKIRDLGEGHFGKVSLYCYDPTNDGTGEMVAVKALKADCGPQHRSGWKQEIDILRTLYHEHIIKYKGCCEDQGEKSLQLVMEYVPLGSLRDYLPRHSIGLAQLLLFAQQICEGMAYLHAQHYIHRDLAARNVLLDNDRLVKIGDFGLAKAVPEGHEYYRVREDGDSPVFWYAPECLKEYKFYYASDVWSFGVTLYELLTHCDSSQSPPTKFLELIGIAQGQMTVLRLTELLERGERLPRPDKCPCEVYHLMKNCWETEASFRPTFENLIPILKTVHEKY
The target of assay [3] is human JAK3 catalytic kinase (JH1) domain (Homo sapiens (Human), UniProt P52333). The experiment in a line: ADP-Glo Kinase Assay, recombinant JAK3 catalytic kinase (JH1) domain. As to conditions: recombinant JH1 domain 0.3 nM, 4 μM ATP, JAK3-974 peptide, mean, read-out: JAK3 biochem IC50 (nM) Mean. The method, boiled down:
as §1
In general terms: In ADP-Glo the light output rises with the ADP produced.

Assay [4] deals with human JAK2 catalytic kinase (JH1) domain (Homo sapiens (Human), UniProt O60674). Kind of assay: ADP-Glo Kinase Assay, recombinant JAK2 catalytic kinase (JH1) domain. As to conditions: recombinant JH1 domain 0.2 nM, 15 μM ATP, JAK3-974 peptide, mean, read-out: JAK2 biochem IC50 (nM) Mean. In short, it runs like this:
as §1

Molecules are shown by their SMILES.

Sequence of human JAK3 catalytic kinase (JH1) domain (P52333 822-1111): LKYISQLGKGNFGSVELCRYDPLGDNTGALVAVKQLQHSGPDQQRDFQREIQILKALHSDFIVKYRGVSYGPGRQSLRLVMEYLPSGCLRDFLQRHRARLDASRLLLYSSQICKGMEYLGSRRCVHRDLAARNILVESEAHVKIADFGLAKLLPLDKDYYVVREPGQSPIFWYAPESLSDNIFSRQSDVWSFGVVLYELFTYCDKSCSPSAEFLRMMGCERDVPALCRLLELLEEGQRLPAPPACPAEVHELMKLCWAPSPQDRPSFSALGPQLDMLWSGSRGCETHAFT
Sequence of human JAK1 catalytic kinase (JH1) domain (P23458 875-1153): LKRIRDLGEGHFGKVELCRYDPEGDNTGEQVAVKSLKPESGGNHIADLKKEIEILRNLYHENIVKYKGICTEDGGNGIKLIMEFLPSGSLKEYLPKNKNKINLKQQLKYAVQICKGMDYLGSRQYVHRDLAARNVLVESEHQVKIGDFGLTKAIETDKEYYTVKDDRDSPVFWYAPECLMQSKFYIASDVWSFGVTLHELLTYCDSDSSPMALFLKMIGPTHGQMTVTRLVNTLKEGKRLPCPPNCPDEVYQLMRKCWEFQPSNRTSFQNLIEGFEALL
Sequence of human JAK2 catalytic kinase (JH1) domain (O60674 849-1124): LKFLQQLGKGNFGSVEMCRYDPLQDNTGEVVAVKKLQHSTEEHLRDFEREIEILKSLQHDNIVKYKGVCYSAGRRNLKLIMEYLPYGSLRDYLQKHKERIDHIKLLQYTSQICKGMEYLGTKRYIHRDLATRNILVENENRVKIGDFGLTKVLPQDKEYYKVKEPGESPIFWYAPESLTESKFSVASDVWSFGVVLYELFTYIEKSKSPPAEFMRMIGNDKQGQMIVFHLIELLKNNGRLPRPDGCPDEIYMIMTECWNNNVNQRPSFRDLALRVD

Consider `O=C([C@@H]1C[C@H]1F)N1C2CCC1CN(c1ccnn3cc(-c4cnn(C(F)(F)F)c4)cc13)C2` [Example 18, ((1S,2R)-2-fluorocyclopropyl)(3-(6-(1-(trifluoromethyl)-1H-pyrazol-4-yl)pyrrolo[1,2-b]pyridazin-4-yl)-3,8-diazabicyclo[3.2.1]octan-8-yl)methanone], for which the IC50 in assay [1] worked out at 38 nM; in assay [2], 1.5 nM; in assay [3], 391 nM; in assay [4], 33 nM.
The corresponding values for `CC(C)n1cc(-c2cc3c(N4CC5CCC(C4)N5C(=O)C4CC4)ncnn3c2)cn1` [Example 148] are 731 nM, 136 nM, 2140 nM and 1650 nM.
Consider `Cn1cc(-c2cc3c(N4CC5CCC(C4)N5C(=O)[C@H]4C[C@@H]4F)ncnn3c2)cn1` (racemic) [Example 61, Rac-((1R,2S)-2-fluorocyclopropyl)(3-(6-(1-methyl-1H-pyrazol-4-yl)pyrrolo[2,1-f][1,2,4]triazin-4-yl)-3,8-diazabicyclo[3.2.1]octan-8-yl)methanone], for which the half-maximal inhibitory concentration (IC50) turned out to be 992 nM in assay [1], 37.7 nM in assay [2], 3760 nM in assay [3] and 1870 nM in assay [4].
